Assay results as given in PubChem BioAssay (NCI).
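The compound was tested at five concentrations on cells cultured in 96-well plates, with a 48-hour exposure period. TGI: total growth inhibition.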

Legend:
Assay in all cases: inhibition of tumour cell growth, NCI panel, 48 h
MDA-MB-231 breast = tested on: MDA-MB-231 breast
MOLT-4 leukemia = tested on: MOLT-4 leukemia
OVCAR-8 ovarian = tested on: OVCAR-8 ovarian
OVCAR-5 ovarian = tested on: OVCAR-5 ovarian
SK-OV-3 ovarian = tested on: SK-OV-3 ovarian
NCI-H522 lung = tested on: NCI-H522 lung
SNB-19 CNS = tested on: SNB-19 CNS
RXF 393 renal = tested on: RXF 393 renal
HS 578T breast = tested on: HS 578T breast
MALME-3M melanoma = tested on: MALME-3M melanoma
MCF7 breast = tested on: MCF7 breast
CAKI-1 renal = tested on: CAKI-1 renal
UO-31 renal = tested on: UO-31 renal

O=C1CC2(CCNCC2)C(=O)N1N1CCCCC1
TGI (MDA-MB-231 breast): > 100 µM | TGI (MOLT-4 leukemia): > 100 µM | TGI (OVCAR-8 ovarian): > 100 µM | TGI (OVCAR-5 ovarian): > 100 µM | TGI (SK-OV-3 ovarian): > 100 µM | TGI (NCI-H522 lung): > 100 µM | TGI (SNB-19 CNS): > 100 µM | TGI (RXF 393 renal): > 100 µM | TGI (HS 578T breast): > 100 µM | TGI (MALME-3M melanoma): > 100 µM | TGI (MCF7 breast): > 100 µM | TGI (CAKI-1 renal): > 100 µM | TGI (UO-31 renal): > 100 µM

[O-]/[N+](=N/c1ncc(-c2ccccc2)cn1)c1ncc(-c2ccccc2)cn1
TGI (MDA-MB-231 breast): > 100 µM | TGI (MOLT-4 leukemia): > 100 µM | TGI (OVCAR-8 ovarian): > 100 µM | TGI (OVCAR-5 ovarian): > 100 µM | TGI (SK-OV-3 ovarian): > 100 µM | TGI (NCI-H522 lung): 32.3 µM | TGI (SNB-19 CNS): > 100 µM | TGI (RXF 393 renal): > 100 µM | TGI (HS 578T breast): > 100 µM | TGI (MALME-3M melanoma): > 100 µM | TGI (MCF7 breast): > 100 µM | TGI (CAKI-1 renal): > 100 µM | TGI (UO-31 renal): > 100 µM

O=C1Nc2ccccc2/C1=N/N1C(=O)/C(=C/c2ccccc2S)N=C1c1ccccc1
TGI (MDA-MB-231 breast): > 100 µM | TGI (MOLT-4 leukemia): > 100 µM | TGI (OVCAR-8 ovarian): > 100 µM | TGI (OVCAR-5 ovarian): > 100 µM | TGI (SK-OV-3 ovarian): > 100 µM | TGI (NCI-H522 lung): > 100 µM | TGI (SNB-19 CNS): > 100 µM | TGI (RXF 393 renal): > 100 µM | TGI (HS 578T breast): > 100 µM | TGI (MALME-3M melanoma): > 100 µM | TGI (MCF7 breast): > 100 µM | TGI (CAKI-1 renal): > 100 µM | TGI (UO-31 renal): > 100 µM

N#CCN1CCN(CC#N)CCN(CC#N)CCN(CC#N)CC1
TGI (MDA-MB-231 breast): > 100 µM | TGI (MOLT-4 leukemia): > 100 µM | TGI (OVCAR-8 ovarian): > 100 µM | TGI (OVCAR-5 ovarian): > 100 µM | TGI (SK-OV-3 ovarian): > 100 µM | TGI (NCI-H522 lung): > 100 µM | TGI (SNB-19 CNS): > 100 µM | TGI (RXF 393 renal): > 100 µM | TGI (HS 578T breast): > 100 µM | TGI (MALME-3M melanoma): > 100 µM | TGI (MCF7 breast): > 100 µM | TGI (CAKI-1 renal): > 100 µM | TGI (UO-31 renal): > 100 µM

COc1ccc2cc(/C=N\NC(=O)Nc3ccc([N+](=O)[O-])cc3)ccc2c1
TGI (MDA-MB-231 breast): 19.1 µM | TGI (MOLT-4 leukemia): 21.8 µM | TGI (OVCAR-8 ovarian): 16.9 µM | TGI (OVCAR-5 ovarian): 48.6 µM | TGI (SK-OV-3 ovarian): 18.5 µM | TGI (NCI-H522 lung): 26.4 µM | TGI (SNB-19 CNS): 20.1 µM | TGI (RXF 393 renal): 16.6 µM | TGI (HS 578T breast): > 31.6 µM | TGI (MALME-3M melanoma): 22.4 µM | TGI (MCF7 breast): > 31.6 µM | TGI (CAKI-1 renal): 18.5 µM | TGI (UO-31 renal): 18.8 µM

CC(C)=CC[C@H]1C[C@@]2(CC=C(C)C)C(=O)/C(=C(/O)c3ccccc3)C(=O)[C@](CC=C(C)C)(C2=O)C1(C)C
TGI (MDA-MB-231 breast): 22.3 µM | TGI (MOLT-4 leukemia): > 100 µM | TGI (OVCAR-8 ovarian): 35 µM | TGI (OVCAR-5 ovarian): 19.5 µM | TGI (SK-OV-3 ovarian): 24.3 µM | TGI (NCI-H522 lung): 32.5 µM | TGI (SNB-19 CNS): 20.4 µM | TGI (RXF 393 renal): 24.1 µM | TGI (HS 578T breast): 59.6 µM | TGI (MALME-3M melanoma): 27.9 µM | TGI (MCF7 breast): 21.5 µM | TGI (CAKI-1 renal): 28.9 µM | TGI (UO-31 renal): 13.3 µM

O=C(/N=C1/OC(CN2CCOCC2)CN1C(=O)Nc1ccccc1)Nc1ccccc1 (stereo unspecified)
TGI (MDA-MB-231 breast): > 100 µM | TGI (MOLT-4 leukemia): > 100 µM | TGI (OVCAR-8 ovarian): > 100 µM | TGI (OVCAR-5 ovarian): > 100 µM | TGI (SK-OV-3 ovarian): > 100 µM | TGI (NCI-H522 lung): > 100 µM | TGI (SNB-19 CNS): > 100 µM | TGI (RXF 393 renal): > 100 µM | TGI (HS 578T breast): > 100 µM | TGI (MALME-3M melanoma): > 100 µM | TGI (MCF7 breast): > 100 µM | TGI (CAKI-1 renal): > 100 µM | TGI (UO-31 renal): > 100 µM
